Data reported in the supplement of paper PMC10307832.

Legend:
Assay in all cases: relative viability (nuclei count vs DMSO), 5 days (fraction); higher = more cells survive
[1] = compound: CN[C@@H]1C[C@H]2O[C@@](C)([C@@H]1OC)n1c3ccccc3c3c4c(c5c6ccccc6n2c5c31)C(=O)NC4 [Staurosporine] + Cc1nc(NC(=O)N2CCC[C@H]2C(N)=O)sc1-c1ccnc(C(C)(C)C(F)(F)F)c1 [Alpelisib] (partner 2 µM)
Summary of the method: (§1)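 Lung cancer cell lines in 1536-well plates were dosed by pin tool the day after seeding, either with one drug alone or with a fixed anchor-drug dose plus five library-drug doses (not always all listed) in √10 steps. After 5 days, cells were fixed and their nuclei stained in one step (final 0.05% Triton X-100, 1% formaldehyde, 1 ug/ml Hoechst), then counted on 4× images. Relative viability is the nuclei count in treated wells divided by that in vehicle wells. Values are medians of duplicate plates.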

[2] = compound: CN[C@@H]1C[C@H]2O[C@@](C)([C@@H]1OC)n1c3ccccc3c3c4c(c5c6ccccc6n2c5c31)C(=O)NC4 [Staurosporine] + O=C(CCCCCCC(=O)Nc1ccccc1)NO [Vorinostat] (partner 1 µM)
Summary of the method: as §1

[3] = compound: O=c1[nH]cc(F)c(=O)[nH]1 [5-Fluorouracil] + Cc1cc(Nc2cc(N3CCN(C)CC3)nc(Sc3ccc(NC(=O)C4CC4)cc3)n2)n[nH]1 [Tozasertib] (partner 0.1 µM)
Summary of the method: as §1

[4] = compound: O=c1[nH]cc(F)c(=O)[nH]1 [5-Fluorouracil] + Cc1nc(Nc2ncc(C(=O)Nc3c(C)cccc3Cl)s2)cc(N2CCN(CCO)CC2)n1 [Dasatinib] (partner 0.075 µM)
Summary of the method: as §1

Cell Line	relative viability ([1]; first compound 0.005 µM)	relative viability ([1]; first compound 0.01581 µM)	relative viability ([1]; first compound 0.05 µM)	relative viability ([1]; first compound 0.1581 µM)	relative viability ([2]; first compound 0.005 µM)	relative viability ([2]; first compound 0.01581 µM)	relative viability ([2]; first compound 0.05 µM)	relative viability ([2]; first compound 0.1581 µM)	relative viability ([2]; first compound 0.5 µM)	relative viability ([3]; first compound 0.02 µM)	relative viability ([3]; first compound 0.2 µM)	relative viability ([3]; first compound 0.6325 µM)	relative viability ([3]; first compound 2 µM)	relative viability ([4]; first compound 0.02 µM)	relative viability ([4]; first compound 0.2 µM)	relative viability ([4]; first compound 0.6325 µM)	relative viability ([4]; first compound 2 µM)	relative viability ([1]; first compound 0.5 µM)
NCI-H2347	1.03	0.67	0.34	0.364	0.409	0.378	0.274	0.264	0.228	0.606	0.425	0.303	0.292	0.334	0.328	0.295	0.224	
NCI-H1651	0.778	0.564	0.385	0.223	0.609	0.537	0.402	0.122	0.116	0.626	0.602	0.543	0.441	0.438	0.363	0.276	0.401	0.109
NCI-H1993	0.623	0.668	0.578	0.503	0.588	0.275	0.475	0.344	0.232	0.556	0.61	0.585	0.554	0.581	0.566	0.503	0.487	0.449
LOU-NH91	0.718	0.575	0.457	0.304	0.859	0.405	0.61	0.267	0.294	0.701	0.705	0.564	0.243	0.566	0.598	0.501	0.304	0.305
NCI-H520	1.2	0.784	0.544	0.477	0.726	0.498	0.384	0.191	0.148		0.484	0.438	0.329	0.152	0.234	0.174	0.142	0.165
NCI-H661	0.651	0.313	0.303	0.283	0.854	0.695	0.523	0.239	0.179	0.365	0.355	0.342	0.319	0.962	1.01	0.81	0.851	0.251
NCI-H1975	0.238	0.201	0.15	0.108	0.297	0.232	0.218	0.146	0.105	0.847	0.707	0.386	0.201	0.363	0.387	0.307	0.231	0.104
NCI-H1755	0.591	0.418	0.183	0.16	0.555	0.477	0.223	0.189	0.218	0.643	0.523	0.309	0.28	0.416	0.442	0.247	0.184	0.14
NCI-H2009	0.864	0.276	0.267	0.173	0.576	0.185	0.166	0.109	0.0558	0.802	0.793	0.684	0.474	0.226	0.322	0.248	0.271	0.141
